Biological target: Human V1b receptor (Homo sapiens (Human), UniProt P47901)
Assay: Binding Test for V1b Receptor ([3H]AVP, crude membrane preparation of 293FT cells)
Details: inhibition of [3H]AVP binding (0.4 to 1 nmol/L), room temperature, 60 minutes
How it was run: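 Crude membranes from 293FT cells transiently expressing human V1b, incubated with [3H]AVP (0.4 to 1 nmol/L) and compound (0.01 nmol/L–1 μmol/L final) in Tris pH 7.4 with MgCl2 and 0.1% BSA, 60 min at room temperature. Bound label collected by filtration. Nonspecific binding defined with unlabeled AVP; IC50 from dose-response curve.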

Sequence of Human V1b receptor (P47901 whole entry): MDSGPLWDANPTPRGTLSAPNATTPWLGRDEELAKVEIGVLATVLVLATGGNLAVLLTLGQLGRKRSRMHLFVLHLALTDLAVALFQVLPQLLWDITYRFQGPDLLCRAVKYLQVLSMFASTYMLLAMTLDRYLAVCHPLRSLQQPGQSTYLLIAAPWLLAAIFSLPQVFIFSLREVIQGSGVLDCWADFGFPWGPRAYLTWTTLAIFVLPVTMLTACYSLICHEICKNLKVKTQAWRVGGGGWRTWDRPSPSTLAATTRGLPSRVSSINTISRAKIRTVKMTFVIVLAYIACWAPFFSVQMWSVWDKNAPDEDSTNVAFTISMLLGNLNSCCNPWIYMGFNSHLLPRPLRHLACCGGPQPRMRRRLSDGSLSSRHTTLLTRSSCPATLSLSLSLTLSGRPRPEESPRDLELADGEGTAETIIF

| IC50 | SMILES |
| --- | --- |
| 100 to 1000 nM | CC1CCN(CCc2ccc(-n3nc(CC(=O)NC(C)C)n(-c4cccc(Cl)c4)c3=O)cc2)CC1 [Example D-49, 2-[4-(3-chlorophenyl)-1-{4-[2-(4-methylpiperidin-1-yl)ethyl]phenyl}-5-oxo-4-,5-dihydro-1H-1,2,4-triazol-3-yl]-N-(propan-2-yl)acetamide] |
| 10 to 100 nM | COc1cccc(-n2c(CC(=O)NC(C)(C)C)nn(-c3ccc(CCN4CCOCC4)cn3)c2=O)c1 [Example D-08, N-tert-butyl-2-[4-(3-methoxyphenyl)-1-{5-[2-(morpholin-4-yl)ethyl]pyridin-2-yl}-5-oxo-4,5-dihydro-1H-1,2,4-triazol-3-yl]acetamide] |
| 16 nM | CC(C)NC(=O)Cc1nn(-c2ccc(CCN3CCCCC3)cc2)c(=O)n1-c1ccc(F)c(Cl)c1 [Example D-44, 2-[4-(3-chloro-4-fluorophenyl)-5-oxo-1-{4-[2-(piperidin-1-yl)ethyl]phenyl}-4,5-dihydro-1H-1,2,4-triazol-3-yl]-N-(propan-2-yl)acetamide] |
| 10 to 100 nM | CC(C)NC(=O)Cc1nn(-c2ccc(CC(C)N3CCOCC3)cn2)c(=O)n1-c1cccc(Cl)c1 [Example D-19, 2-[4-(3-chlorophenyl)-1-{5-[2-(morpholin-4-yl)propyl]pyridin-2-yl}-5-oxo-4,5-dihydro-1H-1,2,4-triazol-3-yl]-N-(propan-2-yl)acetamide] |
| 15 nM | CC(C)NC(=O)Cc1nn(-c2ccc(CCN3CCCC3)cc2)c(=O)n1-c1ccc(F)c(Cl)c1 [Example D-43, 2-[4-(3-chloro-4-fluorophenyl)-5-oxo-1-{4-[2-(pyrrolidin-1-yl)ethyl]phenyl}-4,5-dihydro-H-1,2,4-triazol-3-yl]-N-(propan-2-yl)acetamide] |
| 10 to 100 nM | CC(C)NC(=O)Cc1nn(-c2ccc(CCN3CCC(F)CC3)cc2)c(=O)n1-c1cccc(Cl)c1 [Example D-57, 2-[4-(3-chlorophenyl)-1-{4-[2-(4-fluoropiperidin-1-yl)ethyl]phenyl}-5-oxo-4,5-dihydro-1H-1,2,4-triazol-3-yl]-N-(propan-2-yl)acetamide] |

More lines, now with the values behind:

| SMILES | IC50 |
| --- | --- |
| CC(C)NC(=O)Cc1nc(-c2cccc(CCN3CCCCC3)c2)sc1-c1cccc(Cl)c1 [Example C-16, 2-[5-(3-chlorophenyl)-2-{3-[2-(piperidin-1-yl)ethyl]phenyl}-1,3-thiazol-4-yl]-N-(propan-2-yl)acetamide] | 100 to 1000 nM |
| COc1cccc(-n2c(CC(=O)NC(C)(C)C)nn(-c3ccc(CCN4C5CCC4COC5)cc3)c2=O)c1 [Example D-07, N-tert-butyl-2-[4-(3-methoxyphenyl)-1-{4-[2-(3-oxa-8-azabicyclo[3.2.1]oct-8-yl)ethyl]phenyl}-5-oxo-4,5-dihydro-1H-1,2,4-triazol-3-yl]acetamide] | 5.5 nM |
| CC(C)NC(=O)Cn1cc(C(=O)N(C)C2CCC(N3CCOCC3)CC2)nc1-c1cccc(Cl)c1 (stereo not drawn) [Example A-48, 2-(3-chlorophenyl)-N-methyl-N-[4-(morpholin-4-yl)cyclohexyl]-1-[2-oxo-2-(propan-2-ylamino)ethyl]-1H-imidazole-4-carboxamide] | 100 to 1000 nM |
| CC(C)NC(=O)Cn1cc(-c2ccc(CC(C)N3CCOCC3)cc2)nc1-c1cccc(Cl)c1 (stereo not drawn) [Example A-44, 2-[2-(3-chlorophenyl)-4-{4-[2-(morpholin-4-yl)propyl]phenyl}-1H-imidazol-1-yl]-N-(propan-2-yl)acetamide] | 0.16 nM |
| COc1cc(-n2c(CC(=O)NC(C)C)nn(-c3ccc(CCN4C5CCC4COC5)cc3)c2=O)ccc1F [Example D-37, 2-[4-(4-fluoro-3-methoxyphenyl)-1-{4-[2-(3-oxa-8-azabicyclo[3.2.1]oct-8-yl)ethyl]phenyl}-5-oxo-4,5-dihydro-1H-1,2,4-triazol-3-yl]-N-(propan-2-yl)acetamide] | 12 nM |
| COc1cc(-c2nc(-c3ccc(CCN4C5CCC4CC(O)C5)cc3)cn2CC(=O)NC(C)C)ccc1F (stereo not drawn) [Example A-15, 2-[2-(4-fluoro-3-methoxyphenyl)-4-{4-[2-(3-hydroxy-8-azabicyclo[3.2.1]oct-8-yl)ethyl]phenyl}-1H-imidazol-1-yl]-N-(propan-2-yl)acetamide] | 2.4 nM |
| COc1cc(-c2nc(-c3ccc(CCN4CCOCC4)cc3)cn2CC(=O)NC(C)C)ccc1F [Example A-10, 2-[2-(4-fluoro-3-methoxyphenyl)-4-{4-[2-(morpholin-4-yl)ethyl]phenyl}1H-imidazol-1-yl]-N-(propan-2-yl)acetamide] | 3.7 nM |
| CC(C)NC(=O)Cc1nn(-c2ccc(CC(C)N3C4CCC3COC4)cc2)c(=O)n1-c1ccc(F)c(Cl)c1 [Example D-36, 2-[4-(3-chloro-4-fluorophenyl)-1-{4-[2-(3-oxa-8-azabicyclo[3.2.1]oct-8-yl)propyl]phenyl}-5-oxo-4,5-dihydro-1H-1,2,4-triazol-3-yl]-N-(propan-2-yl)acetamide] | 0.61 nM |
| COc1cc(-n2c(CC(=O)NC(C)C)nn(-c3ccc(CCN4C5CCC4COC5)cn3)c2=O)ccc1F [Example D-38, 2-[4-(4-fluoro-3-methoxyphenyl)-1-{5-[2-(3-oxa-8-azabicyclo[3.2.1]oct-8-yl)ethyl]pyridin-2-yl}-5-oxo-4,5-dihydro-1H-1,2,4-triazol-3-yl]-N-(propan-2-yl)acetamide] | 10 to 100 nM |
| COc1cc(-c2nc(-c3ccc(CCN4CCCC(OC)C4)cc3)cn2CC(=O)NC(C)C)ccc1F (stereo not drawn) [Example A-18, 2-[2-(4-fluoro-3-methoxyphenyl)-4-{4-[2-(3-methoxypiperidin-1-yl)ethyl]phenyl}-1H-imidazol-1-yl]-N-(propan-2-yl)acetamide] | 19 nM |
| COc1cc(-c2nc(-c3ccc(CCN4CC(C)OC(C)C4)cc3)cn2CC(=O)NC(C)C)ccc1F (stereo not drawn) [Example A-20, 2-[4-{4-[2-(2,6-dimethylmorpholin-4-yl)ethyl]phenyl}-2-(4-fluoro-3-methoxyphenyl)-1H-imidazol-1-yl]-N-(propan-2-yl)acetamide] | 12 nM |
| CC(C)NC(=O)Cc1nn(-c2ccc(CCN3C4CCC3COC4)cc2F)c(=O)n1-c1cccc(Cl)c1 [Example D-24, 2-[4-(3-chlorophenyl)-1-{2-fluoro-4-[2-(3-oxa-8-azabicyclo[3.2.1]oct-8-yl)ethyl]phenyl}-5-oxo-4,5-dihydro-1H-1,2,4-triazol-3-yl]-N-(propan-2-yl)acetamide] | 10 to 100 nM |
| COc1cc(-n2c(CC(=O)NC(C)C)nn(-c3ccc(CCN4C5CCC4COC5)c(OC)c3)c2=O)ccc1F [Example D-41, 2-[4-(4-fluoro-3-methoxyphenyl)-1-{3-methoxy-4-[2-(3-oxa-8-azabicyclo[3.2.1]oct-8-yl)ethyl]phenyl}-5-oxo-4,5-dihydro-1H-1,2,4-triazol-3-yl]-N-(propan-2-yl)acetamide] | 2.7 nM |
| CC(C)NC(=O)Cc1nc(-c2ccc(CCN3CC4(COC4)C3)cc2)sc1-c1cccc(Cl)c1 [Example C-15, 2-[5-(3-chlorophenyl)-2-{4-[2-(2-oxa-6-azaspiro[3.3]hept-6-yl)ethyl]phenyl}-1,3-thiazol-4-yl]-N-(propan-2-yl)acetamide] | 22 nM |
| COc1cccc(-c2nc(-c3ccc(CC(C)N4C5CCC4COC5)cc3)nn2CC(=O)NC(C)C)c1 (stereo not drawn) [Example B-20, 2-[5-(3-methoxyphenyl)-3-{4-[2-(3-oxa-8-azabicyclo[3.2.1]oct-8-yl)propyl]phenyl}-1H-1,2,4-triazol-1-yl]-N-(propan-2-yl)acetamide] | 0.43 nM |

From US9522914B2, “Azole derivative” (TAISHO PHARMACEUTICAL CO., LTD, priority 2011, dated 2016)
